Laboratory results taken from patent publication US5480869A, “Anti-inflammatory peptide analogs and treatment to inhibit vascular leakage in injured tissues” (The Regents of the University of California, priority 1993, dated 1996).
Where “and” joins values, the source holds several entries; their conditions need not be identical. Equal entries are not always repeated. Where a SMILES comes first, the peptide text is derived from it. [ ]: non-standard residue; d: D form.

Test system: rat's hind paw heat-edema
Experiment: heat-induced paw edema in pentobarbital-anesthetized rat (58° C. water, 1 minute)
Type: in vivo
Settings: for Heat-Edema % Saline Values: ten minutes before 58° C. water for 1 minute, edema measured 30 minutes after heat; for anti-inflammatory activity, result in words: heat-edema, relative to saline controls
Experimental: The inventive peptides were dissolved either in saline or saline acidified with 0.1 M acetic acid and injected intravenously into a pentobarbital-anesthetized rat. The rat's hind paw was then immersed in 58°-60° C. water for 1 minute and the increase in paw weight, as an index of edema and swelling, was measured 30 minutes later. For some peptides, the ability of the substances to inhibit vascular leakage after muscle injury was also tested. Normally, the paw weight of saline-treated animals (controls) will increase by about 65-95% after heat injury. The increase in weight is relative to the contralateral non-heated paw.
In screening the bioactivity of new peptides, a dose of 5 mg/kg i.v. was initially used. In later studies, when greater activity was expected, a screening dose of 1 to 2 mg/kg i.v. was used.
Thus, each peptide was injected intravenously (at the amounts specified, usually 1 or 5 mg/kg, or by full dose-response analysis) 10 minutes (for 7/8-mers) or one hour (for 11-mers) before immersion of the right paw in 58° C. water, for 1 minute, and weights of both paws were obtained 30minutes later. To obtain statistical accuracy, four to six animals were used in each group. The % wt increase was calculated as (wt of heated paw--wt of unheated paw/wt of unheated paw)×100 and converted to % of the saline control group values, which were run concurrently.

[1] = dose 5 mg/kg i.v., N.S. = not different from saline
[2] = i.y. [sic], 7/8-mers, ten minute interval between administration and 58° C. water for 1 minute, edema 30 minutes after heat, Table 3

## 1ATyRKLL(β-thienyl-D--Ala)Il-NH2
i.v., 11-mers, injected one hour before 58° C. water for 1 minute, paw weight 30 minutes later, Table 1
  ED50 (95% confidence limits): 0.015 (0.006-0.036) mg/kg

## CC[C@H](C)[C@H](NC(=O)[C@H](Cc1ccc(O)cc1)NC(=O)[C@H](CCSC)NC(=O)[C@H](CC(C)C)NC(=O)[C@H](CCCCN)NC(=O)[C@@H](N)CCCNC(=N)N)C(=O)N[C@H](CC(C)C)C(N)=O [Composition 5] (HELM PEPTIDE1{R.K.L.M.Y.I.[dL].[am]}$$$$V2.0)
[1]
  Heat-Edema % Saline Values: 70 ± 9 % Saline Values

## CC[C@H](C)[C@H](NC(=O)[C@H](CC(C)C)NC(=O)[C@H](CCSC)NC(=O)[C@H](CC(C)C)NC(=O)[C@H](CCCCN)NC(=O)[C@@H](N)CCCNC(=N)N)C(=O)N[C@H](CC(C)C)C(N)=O [Composition 6] (HELM PEPTIDE1{R.K.L.M.L.I.[dL].[am]}$$$$V2.0)
[1]
  Heat-Edema % Saline Values: 67 ± 10 % Saline Values

## CC[C@H](C)[C@H](NC(=O)[C@H](Cc1c[nH]c2ccccc12)NC(=O)[C@H](CCSC)NC(=O)[C@H](CC(C)C)NC(=O)[C@H](CCCCN)NC(=O)[C@@H](N)CCCNC(=N)N)C(=O)N[C@H](CC(C)C)C(N)=O [Composition 7] (HELM PEPTIDE1{R.K.L.M.W.I.[dL].[am]}$$$$V2.0)
[1]
  Heat-Edema % Saline Values: 38 ± 5 % Saline Values

## CC[C@H](C)[C@H](NC(=O)[C@H](CCCCN)NC(=O)[C@H](CC(C)C)NC(=O)[C@H](CC(C)C)NC(=O)[C@H](CCCCN)NC(=O)[C@@H](N)CCCNC(=N)N)C(=O)N[C@H](CC(C)C)C(N)=O [Composition 8] (HELM PEPTIDE1{R.K.L.L.K.I.[dL].[am]}$$$$V2.0)
[1]
  Heat-Edema % Saline Values: 38 ± 10 % Saline Values

## CC[C@H](C)[C@H](NC(=O)[C@H](CCCNC(=N)N)NC(=O)[C@H](CC(C)C)NC(=O)[C@H](CC(C)C)NC(=O)[C@H](CCCCN)NC(=O)[C@@H](N)CCCNC(=N)N)C(=O)N[C@H](CC(C)C)C(N)=O [Composition 9] (HELM PEPTIDE1{R.K.L.L.R.I.[dL].[am]}$$$$V2.0)
[1]
  Heat-Edema % Saline Values: 18 ± 3 % Saline Values

## CC[C@H](C)[C@H](NC(=O)[C@H](Cc1ccc(F)cc1)NC(=O)[C@H](CC(C)C)NC(=O)[C@H](CC(C)C)NC(=O)[C@H](CCCCN)NC(=O)[C@@H](N)CCCNC(=N)N)C(=O)N[C@H](CC(C)C)C(N)=O [Composition 10] (HELM PEPTIDE1{R.K.L.L.[O=C([C@H](Cc1ccc(F)cc1)N[*:1])[*:2]].I.[dL].[am]}$$$$V2.0)
[1]
  Heat-Edema % Saline Values: 54 ± 11 % Saline Values

## CC[C@H](C)[C@H](NC(=O)[C@H](Cc1ccc(I)cc1)NC(=O)[C@H](CC(C)C)NC(=O)[C@H](CC(C)C)NC(=O)[C@H](CCCCN)NC(=O)[C@@H](N)CCCNC(=N)N)C(=O)N[C@H](CC(C)C)C(N)=O [Composition 11] (HELM PEPTIDE1{R.K.L.L.[O=C([C@H](Cc1ccc(I)cc1)N[*:1])[*:2]].I.[dL].[am]}$$$$V2.0)
[1]
  Heat-Edema % Saline Values: 49 ± 6 % Saline Values

## CC[C@H](C)[C@H](NC(=O)[C@H](Cc1ccc([N+](=O)[O-])cc1)NC(=O)[C@H](CC(C)C)NC(=O)[C@H](CC(C)C)NC(=O)[C@H](CCCCN)NC(=O)[C@@H](N)CCCNC(=N)N)C(=O)N[C@H](CC(C)C)C(N)=O [Composition 12] (HELM PEPTIDE1{R.K.L.L.[O=C([C@H](Cc1ccc([N+](=O)[O-])cc1)N[*:1])[*:2]].I.[dL].[am]}$$$$V2.0)
[1]
  Heat-Edema % Saline Values: 41 ± 6 % Saline Values

## CC[C@H](C)[C@H](NC(=O)[C@H](Cc1ccc(Cl)cc1)NC(=O)[C@H](CC(C)C)NC(=O)[C@H](CC(C)C)NC(=O)[C@H](CCCCN)NC(=O)[C@@H](N)CCCNC(=N)N)C(=O)N[C@H](CC(C)C)C(N)=O [Composition 13] (HELM PEPTIDE1{R.K.L.L.[O=C([C@H](Cc1ccc(Cl)cc1)N[*:1])[*:2]].I.[dL].[am]}$$$$V2.0)
Dose 5 mg/kg i.v., N.S. = not different from saline, 5 mg/kg
  Heat-Edema % Saline Values: 15 ± 5 % Saline Values and 15 % Saline Values

## CC[C@H](C)[C@H](NC(=O)[C@H]1CCCN1C(=O)[C@H](CCSC)NC(=O)[C@H](CC(C)C)NC(=O)[C@H](CCCCN)NC(=O)[C@@H](N)CCCNC(=N)N)C(=O)N[C@H](CC(C)C)C(N)=O [Composition 14] (HELM PEPTIDE1{R.K.L.M.[dP].I.[dL].[am]}$$$$V2.0)
Dose 2 mg/kg i.v.
  Heat-Edema % Saline Values: 21 ± 3 % Saline Values

## CC[C@H](C)[C@H](NC(=O)[C@H](Cc1ccc(OC)cc1)NC(=O)[C@H](CCSC)NC(=O)[C@H](CC(C)C)NC(=O)[C@H](CCCCN)NC(=O)[C@@H](CCCCN)NC(C)=O)C(=O)N[C@H](CC(C)C)C(N)=O [Composition 16] (Ac-[dK]KLMY(Me)I[dL]-NH2)
Dose 2 mg/kg i.v.
  Heat-Edema % Saline Values: 67 ± 11 % Saline Values
  anti-inflammatory activity, result in words: retention of activity

## CC[C@H](C)[C@H](NC(=O)[C@H](Cc1ccc(OC)cc1)NC(=O)[C@@H](NC(=O)[C@H](CC(C)C)NC(=O)[C@H](CCCCN)NC(=O)[C@H](CCCNC(=N)N)NC(C)=O)C(C)C)C(=O)N[C@H](CC(C)C)C(N)=O [Composition 17] (Ac-RKLVY(Me)I[dL]-NH2)
Dose 2 mg/kg i.v.
  Heat-Edema % Saline Values: 49 ± 9 % Saline Values
  anti-inflammatory activity, result in words: retains activity, albeit at a lower potency

## CC[C@H](C)[C@H](NC(=O)[C@H](Cc1ccc(OC)cc1)NC(=O)[C@H](CCSC)NC(=O)[C@H](CC(C)C)NC(=O)[C@H](CCCCN)NC(=O)[C@H](CCCNC(=N)N)NC(C)=O)C(=O)N[C@H](CC(C)C)C(N)=O [Composition 18] (Ac-RKLMY(Me)I[dL]-NH2)
Dose 2 mg/kg i.v.
  Heat-Edema % Saline Values: 27 ± 1 % Saline Values

## CC[C@H](C)[C@H](NC(=O)[C@@H](CCCCN)NC(=O)[C@H](CC(C)C)NC(=O)[C@H](CC(C)C)NC(=O)[C@H](CCCCN)NC(=O)[C@H](CCCNC(=N)N)NC(C)=O)C(=O)N[C@H](CC(C)C)C(N)=O [Composition 19] (HELM PEPTIDE1{[ac].R.K.L.L.[dK].I.[dL].[am]}$$$$V2.0)
Dose 1 mg/kg i.v.
  Heat-Edema % Saline Values: 23 ± 8 % Saline Values

## CC[C@H](C)[C@H](NC(=O)[C@@H](Cc1c[nH]cn1)NC(=O)[C@H](CC(C)C)NC(=O)[C@H](CC(C)C)NC(=O)[C@H](CCCCN)NC(=O)[C@@H](N)CCCNC(=N)N)C(=O)N[C@H](CC(C)C)C(N)=O [Composition 20] (HELM PEPTIDE1{R.K.L.L.[dH].I.[dL].[am]}$$$$V2.0)
[2]
  ED50 (95% confidence limits): 2.3 (1.2-4.2) mg/kg

## CC[C@H](C)[C@H](NC(=O)[C@@H](CCCNC(=N)N)NC(=O)[C@H](CC(C)C)NC(=O)[C@H](CC(C)C)NC(=O)[C@H](CCCCN)NC(=O)[C@@H](N)CCCNC(=N)N)C(=O)N[C@H](CC(C)C)C(N)=O [Composition 21] (HELM PEPTIDE1{R.K.L.L.[dR].I.[dL].[am]}$$$$V2.0)
[2]
  ED50 (95% confidence limits): 2.0 (0.80-5.0) mg/kg

## CC[C@H](C)[C@H](NC(=O)[C@@H](CC(C)C)NC(=O)[C@H](CC(C)C)NC(=O)[C@H](CC(C)C)NC(=O)[C@H](CCCCN)NC(=O)[C@@H](N)CCCNC(=N)N)C(=O)N[C@H](CC(C)C)C(N)=O [Composition 23] (HELM PEPTIDE1{R.K.L.L.[dL].I.[dL].[am]}$$$$V2.0)
[2]
  ED50 (95% confidence limits): 1.3 (0.50-3.6) mg/kg

## CC[C@H](C)[C@H](NC(=O)[C@@H](Cc1c[nH]c2ccccc12)NC(=O)[C@H](CC(C)C)NC(=O)[C@H](CC(C)C)NC(=O)[C@H](CCCCN)NC(=O)[C@@H](N)CCCNC(=N)N)C(=O)N[C@H](CC(C)C)C(N)=O [Composition 24] (HELM PEPTIDE1{R.K.L.L.[dW].I.[dL].[am]}$$$$V2.0)
[2]
  ED50 (95% confidence limits): 0.82 (0.56-1.2) mg/kg

## CC[C@H](C)[C@H](NC(=O)[C@H](Cc1ccc(OC)cc1)NC(=O)[C@H](CCSC)NC(=O)[C@H](CC(C)C)NC(=O)[C@H](CCCCN)NC(=O)[C@H](CCCNC(=N)N)NC(C)=O)C(=O)N[C@@H](C(N)=O)C(C)C [Composition 25] (Ac-RKLMY(Me)I[dV]-NH2)
  anti-inflammatory activity, result in words: retains activity
[2]
  ED50 (95% confidence limits): 1.0 (0.52-1.9) mg/kg

## CC[C@H](C)[C@H](NC(=O)[C@H](CCCNC(=N)N)NC(=O)[C@H](CCCNC(=N)N)NC(C)=O)C(=O)N[C@H](C(=O)N[C@@H](Cc1ccc(OC)cc1)C(=O)N[C@H](C(=O)N[C@H](CC(C)C)C(N)=O)[C@@H](C)CC)[C@@H](C)CC [Composition 26] (Ac-RRIIY(Me)I[dL]-NH2)
  anti-inflammatory activity, result in words: potent anti-inflammatory properties
[2]
  ED50 (95% confidence limits): 0.70 (0.40-1.2) mg/kg

## CC[C@H](C)[C@H](NC(=O)[C@H](Cc1ccc(OC)cc1)NC(=O)[C@H](CCSC)NC(=O)[C@H](CC(C)C)NC(=O)[C@H](CCCCN)NC(=O)[C@@H](CCCNC(=N)N)NC(C)=O)C(=O)N[C@H](CC(C)C)C(N)=O [Composition 27] (Ac-[dR]KLMY(Me)I[dL]-NH2)
[2]
  ED50 (95% confidence limits): 0.52 (0.19-1.8) mg/kg

## CC[C@H](C)[C@H](NC(=O)[C@H](Cc1ccc(OC)cc1)NC(=O)[C@H](CCSC)NC(=O)[C@H](CC(C)C)NC(=O)[C@H](CCCCN)NC(=O)[C@H](CCCNC(=N)N)NC(=O)[C@H](Cc1ccc(OC)cc1)NC(C)=O)C(=O)N[C@H](CC(C)C)C(N)=O [Composition 29] (Ac-Y(Me)RKLMY(Me)I[dL]-NH2)
[2]
  ED50 (95% confidence limits): 0.22 (0.09-0.55) mg/kg
